According to patent US9695155B2, “Herbicidal substituted pyrimidinyloxy benzene compounds” (E. I. DU PONT DE NEMOURS AND COMPANY, priority 2013, dated 2017):

Key:
barnyardgrass [1] = assay: Test A preemergence; type: in vivo, Echinochloa crus-galli; conditions: for Plant response rating, Barnyardgrass: 0 to 100 scale where 0 is no effect and 100 is complete control
In short: (§1)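 Injury scores run from 0, no effect, to 100, complete control, judged by eye against untreated plants roughly 10 days after treatment. Chemicals carried a surfactant in a non-phytotoxic solvent and went onto loam–sand soil preemergence or onto one- to two-leaf seedlings postemergence.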

kochia [2] = assay: Test A preemergence; type: in vivo, Kochia scoparia; conditions: for Plant response rating, Kochia: 0 to 100 scale where 0 is no effect and 100 is complete control
In short: as §1

ragweed [3] = assay: Test A preemergence; type: in vivo, Ambrosia elatior; conditions: for Plant response rating, Ragweed: 0 to 100 scale where 0 is no effect and 100 is complete control
In short: as §1

Italian ryegrass [4] = assay: Test A preemergence; type: in vivo, Lolium multiflorum; conditions: for Plant response rating, Ryegrass, Italian: 0 to 100 scale where 0 is no effect and 100 is complete control
In short: as §1

giant foxtail [5] = assay: Test A preemergence; type: in vivo, Setaria faberii; conditions: for Plant response rating, Foxtail, Giant: 0 to 100 scale where 0 is no effect and 100 is complete control
In short: as §1

pigweed [6] = assay: Test A preemergence; type: in vivo, Amaranthus retroflexus; conditions: for Plant response rating, Pigweed: 0 to 100 scale where 0 is no effect and 100 is complete control
In short: as §1

barnyardgrass [7] = assay: Test A postemergence; type: in vivo, Echinochloa crus-galli; conditions: for Plant response rating, Barnyardgrass: 0 to 100 scale, 0 no effect, 100 complete control; for Barnyardgrass plant response rating: 0 to 100 scale where 0 is no effect and 100 is complete control
In short: as §1

kochia [8] = assay: Test A postemergence; type: in vivo, Kochia scoparia; conditions: for Plant response rating, Kochia: 0 to 100 scale, 0 no effect, 100 complete control; for Kochia plant response rating: 0 to 100 scale where 0 is no effect and 100 is complete control
In short: as §1

ragweed [9] = assay: Test A postemergence; type: in vivo, Ambrosia elatior; conditions: for Plant response rating, Ragweed: 0 to 100 scale, 0 no effect, 100 complete control; for Ragweed plant response rating: 0 to 100 scale where 0 is no effect and 100 is complete control
In short: as §1

Italian ryegrass [10] = assay: Test A postemergence; type: in vivo, Lolium multiflorum; conditions: for Plant response rating, Ryegrass, Italian: 0 to 100 scale, 0 no effect, 100 complete control; for Ryegrass, Italian plant response rating: 0 to 100 scale where 0 is no effect and 100 is complete control
In short: as §1

giant foxtail [11] = assay: Test A postemergence; type: in vivo, Setaria faberii; conditions: for Plant response rating, Foxtail, Giant: 0 to 100 scale, 0 no effect, 100 complete control; for Foxtail, Giant plant response rating: 0 to 100 scale where 0 is no effect and 100 is complete control
In short: as §1

pigweed [12] = assay: Test A postemergence; type: in vivo, Amaranthus retroflexus; conditions: for Plant response rating, Pigweed: 0 to 100 scale, 0 no effect, 100 complete control; for Pigweed plant response rating: 0 to 100 scale where 0 is no effect and 100 is complete control
In short: as §1

wheat = assay: Test A postemergence; type: in vivo, Triticum aestivum; conditions: for Plant response rating, Wheat: 0 to 100 scale, 0 no effect, 100 complete control; for Wheat plant response rating: 0 to 100 scale where 0 is no effect and 100 is complete control
In short: as §1

corn = assay: Test A postemergence; type: in vivo, Zea mays; conditions: for Plant response rating, Corn: 0 to 100 scale, 0 no effect, 100 complete control; for Corn plant response rating: 0 to 100 scale where 0 is no effect and 100 is complete control
In short: as §1

blackgrass = assay: Test A postemergence; type: in vivo, Alopecurus myosuroides; conditions: for Plant response rating, Blackgrass: 0 to 100 scale, 0 no effect, 100 complete control; for Blackgrass plant response rating: 0 to 100 scale where 0 is no effect and 100 is complete control
In short: as §1

galium = assay: Test A postemergence; type: in vivo, Galium aparine; conditions: for Plant response rating, Galium: 0 to 100 scale, 0 no effect, 100 complete control; for Galium plant response rating: 0 to 100 scale where 0 is no effect and 100 is complete control
In short: as §1

rice = assay: Test B flooded paddy test; type: in vivo, Oryza sativa; conditions: Flood, 250 g ai/ha; 0 to 100 scale where 0 is no effect and 100 is complete control
In short: (§2)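 Seedlings are raised to two leaves, flooded to a depth of 3 cm and dosed by adding the compound to the floodwater. Water level is kept constant, and plants are scored visually versus controls 13–15 days later (0 = no effect, 100 = complete control).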

sedge, umbrella = assay: Test B flooded paddy test; type: in vivo, Cyperus difformis; conditions: Flood, 250 g ai/ha; 0 to 100 scale where 0 is no effect and 100 is complete control
In short: as §2

Heteranthera limosa = assay: Test B flooded paddy test; type: in vivo; conditions: Flood, 250 g ai/ha; 0 to 100 scale where 0 is no effect and 100 is complete control
In short: as §2

barnyardgrass [13] = assay: Test B flooded paddy test; type: in vivo, Echinochloa crus-galli; conditions: Flood, 250 g ai/ha; 0 to 100 scale where 0 is no effect and 100 is complete control
In short: as §2

[14] = 31 g ai/ha, visual, approximately 10 days

Compound	Plant response rating, Barnyardgrass (barnyardgrass [1]; [14])	Plant response rating, Kochia (kochia [2]; [14])	Plant response rating, Ragweed (ragweed [3]; [14])	Plant response rating, Ryegrass, Italian (Italian ryegrass [4]; [14])	Plant response rating, Foxtail, Giant (giant foxtail [5]; [14])	Plant response rating, Pigweed (pigweed [6]; [14])	Plant response rating, Barnyardgrass (barnyardgrass [7]; 31 g ai/ha)	Plant response rating, Kochia (kochia [8]; 31 g ai/ha)	Plant response rating, Ragweed (ragweed [9]; 31 g ai/ha)	Plant response rating, Ryegrass, Italian (Italian ryegrass [10]; 31 g ai/ha)	Plant response rating, Foxtail, Giant (giant foxtail [11]; 31 g ai/ha)	Plant response rating, Pigweed (pigweed [12]; 31 g ai/ha)	Plant response rating, Wheat (wheat; 31 g ai/ha)	Plant response rating, Corn (corn; 31 g ai/ha)	Plant response rating, Blackgrass (blackgrass; 31 g ai/ha)	Plant response rating, Galium (galium; 31 g ai/ha)	Plant response rating, Rice (rice)	Plant response rating, Sedge, Umbrella (sedge, umbrella)	Plant response rating, Ducksalad (Heteranthera limosa)	Plant response rating, Barnyardgrass (barnyardgrass [13])	also measured
O=Cc1cn(-c2ccccc2Oc2ncc(Cl)cn2)nn1 [Compound 272]	0	0	0	0	0	0	0	0	0	0	0	0	0	0	0	0	0	0	0	0	Barnyardgrass plant response rating (0 to 100 scale, 0 is no effect, 100 is complete control) (barnyardgrass [1]; 125 g ai/ha): 0; Kochia plant response rating (0 to 100 scale) (kochia [2]; 125 g ai/ha): 0; Ragweed plant response rating (0 to 100 scale) (ragweed [3]; 125 g ai/ha): 0; Ryegrass, Italian plant response rating (0 to 100 scale) (Italian ryegrass [4]; 125 g ai/ha): 0; Foxtail, Giant plant response rating (0 to 100 scale) (giant foxtail [5]; 125 g ai/ha): 0; Pigweed plant response rating (0 to 100 scale) (pigweed [6]; 125 g ai/ha): 0; Plant response rating, Barnyardgrass (barnyardgrass [7]; 125 g ai/ha): 0; Plant response rating, Kochia (kochia [8]; 125 g ai/ha): 0; Plant response rating, Ragweed (ragweed [9]; 125 g ai/ha): 0; Plant response rating, Ryegrass, Italian (Italian ryegrass [10]; 125 g ai/ha): 0; Plant response rating, Foxtail, Giant (giant foxtail [11]; 125 g ai/ha): 0; Plant response rating, Pigweed (pigweed [12]; 125 g ai/ha): 0; Plant response rating, Wheat (wheat; 125 g ai/ha): 0; Plant response rating, Corn (corn; 125 g ai/ha): 0; Plant response rating, Blackgrass (blackgrass; 125 g ai/ha): 0; Plant response rating, Galium (galium; 125 g ai/ha): 0
N#Cc1cnn(-c2c(Cl)cccc2Oc2ncc(Cl)cn2)c1 [Compound 144]	20	70	0	20	70	90	20	50	20	0	20	80	20	20	20	80	0	80	95	0	Plant response rating, Barnyardgrass (barnyardgrass [1]; 125 g ai/ha): 90; Plant response rating, Kochia (kochia [2]; 125 g ai/ha): 100; Plant response rating, Ragweed (ragweed [3]; 125 g ai/ha): 100; Plant response rating, Ryegrass, Italian (Italian ryegrass [4]; 125 g ai/ha): 20; Plant response rating, Foxtail, Giant (giant foxtail [5]; 125 g ai/ha): 100; Plant response rating, Pigweed (pigweed [6]; 125 g ai/ha): 100; Barnyardgrass plant response rating (barnyardgrass [7]; 125 g ai/ha): 90; Kochia plant response rating (kochia [8]; 125 g ai/ha): 100; Ragweed plant response rating (ragweed [9]; 125 g ai/ha): 80; Ryegrass, Italian plant response rating (Italian ryegrass [10]; 125 g ai/ha): 50; Foxtail, Giant plant response rating (giant foxtail [11]; 125 g ai/ha): 100; Pigweed plant response rating (pigweed [12]; 125 g ai/ha): 100; Wheat plant response rating (wheat; 125 g ai/ha): 20; Corn plant response rating (corn; 125 g ai/ha): 40; Blackgrass plant response rating (blackgrass; 125 g ai/ha): 90; Galium plant response rating (galium; 125 g ai/ha): 90
Fc1cnc(Oc2cccc(Br)c2-n2cc(OCC(F)(F)F)cn2)nc1 [Compound 157]	20	60		0	70	90	10	60	20	0	10	90	0	0	30	60	35	75	80	35	Plant response rating, Barnyardgrass (barnyardgrass [1]; 125 g ai/ha): 80; Plant response rating, Kochia (kochia [2]; 125 g ai/ha): 90; Plant response rating, Ragweed (ragweed [3]; 125 g ai/ha): 30; Plant response rating, Ryegrass, Italian (Italian ryegrass [4]; 125 g ai/ha): 0; Plant response rating, Foxtail, Giant (giant foxtail [5]; 125 g ai/ha): 100; Plant response rating, Pigweed (pigweed [6]; 125 g ai/ha): 90; Barnyardgrass plant response rating (barnyardgrass [7]; 125 g ai/ha): 80; Kochia plant response rating (kochia [8]; 125 g ai/ha): 100; Ragweed plant response rating (ragweed [9]; 125 g ai/ha): 50; Ryegrass, Italian plant response rating (Italian ryegrass [10]; 125 g ai/ha): 20; Foxtail, Giant plant response rating (giant foxtail [11]; 125 g ai/ha): 80; Pigweed plant response rating (pigweed [12]; 125 g ai/ha): 100; Wheat plant response rating (wheat; 125 g ai/ha): 0; Corn plant response rating (corn; 125 g ai/ha): 40; Blackgrass plant response rating (blackgrass; 125 g ai/ha): 50; Galium plant response rating (galium; 125 g ai/ha): 90
